Test results taken from patent US20240060146A1, “CHEMICAL SUBSTANCE EVALUATION SYSTEM USING MULTICOLOR LIGHT-EMITTING CELLS” (TOHOKU UNIVERSITY, priority 2020, published 2024).

Tests used:
Assay type in all cases: cell-based
[1] = system: 2H4 cells; assay: IL-2 Luc LTT: evaluation of chemical substance in 2H4 cells; conditions: for IL-2 Luc LTT: 1 h chemical, then 25 nM PMA and 1 μM ionomycin 24 h, class from Min % suppression (nIL2LA) and Min Inh-GAPLA
Procedure: (§1) 2H4 cells were established from Jurkat cells according to the method described in PTL 1. First, for the preparation of 2H4 cells, a plasmid having SLG introduced downstream of the IL-2 promoter, a plasmid having SLR introduced downstream of the G3PDH promoter, and a plasmid having SLO introduced downstream of the INF-γ promoter were prepared as internal standards. These plasmids contained a resistance gene for hygromycin B, puromycin, and neomycin downstream of SLG, SLR, and SLO, respectively. The conditions for drug selection after transfection of the host Jurkat cells were as follows: in the primary selection, the cells were cultured for 1 week in the presence of a drug. In the secondary selection culture, the cells that survived in the primary selection culture were seeded in a 96-well plate at 1 cell/well or 200 cells/well, and cultured for 2 weeks under the same drug conditions. After the secondary selection culture, the cells were subjected to clone selection from the two points of signal intensity and signal induction by drug treatment. The G3PDH promoter SLR was first introduced to establish monochromatic stable cell line Jurkat: G3PDH-SLR #14D1 cells. These cells were used as the parent cell line to introduce the INF-γ promoter SLO, thereby establishing bichromatic stable cell line Jurkat: INFγ-SLO/G3PDH-SLR #2B12 cells. Subsequently, the obtained cells were used as a parent cell line to introduce the IL-2 promoter SLG, thereby establishing trichromatic stable cell line Jurkat IL-2-SLG/INFγ-SLO/G3PDH-SLR #2H4 cells.
The chemical substances listed in Table 1 were evaluated using 2H4 cells. 2H4 cells were seeded in a 96-well plate at 1×10^4/well and treated with each chemical substance for 1 hour, followed by incubating the cells with 25 nM PMA and 1 μM ionomycin for 24 hours. After 24 hours from the treatment with PMA and ionomycin, Tripluck Assay Reagent (manufactured by Toyobo Co., Ltd.) was added, and the amount of luminescence was measured with a Phelios microplate luminometer (manufactured by Atto Corporation). For control, 2H4 cells untreated with a chemical substance were also examined in the same manner. The amount of luminescence of SLG luciferase activity (IL2LA), SLR luciferase activity (GAPLA), and SLO luciferase activity (IFNLA) was measured, and IL-2LA and IFNLA were each normalized by GAPLA and determined to be nIL2LA and nIFNLA, respectively. Thereafter, for the concentration of each chemical substance, “% suppression” and “Inh-GAPLA” were determined according to the following formulas (1) and (2), and the chemical substances were evaluated by using their minimum value (Min % suppression, Min Inh-GAPLA).
In the evaluation, for control, PMA/ionomycin-treated 2H4 cells and PMA/ionomycin-untreated 2H4 cells were also measured for nIL2LA.
(§2) % suppression={(nIL2LA in 2H4 cells untreated with a chemical substance)−(nIL2LA in 2H4 cells treated with a chemical substance)}×100/(nIL2LA in 2H4 cells untreated with a chemical substance) ---(1) Inh-GAPLA=(GAPLA in 2H4 cells treated with a chemical substance)/(GAPLA in 2H4 cells untreated with a chemical substance) ---(2)

[2] = system: 2H4 cells; assay: IL-2 Luc assay: evaluation of chemical substance in 2H4 cells; conditions: 1 h chemical, then PMA/ionomycin, luminescence after six hours, class from Min % suppression of nIL2LA
Procedure: as §1, §2
The chemical substances listed in Table 1 were evaluated using 2H4 cells. 2H4 cells were seeded in a 96-well plate at 2×10^5 cells/50 μl/well and treated with each chemical substance for 1 hour, followed by incubating the cells with 25 nM PMA and 1 µM ionomycin […]. After six hours from the treatment with PMA and ionomycin, Tripluc: Assay Reagent (manufactured by Toyobo Co., Ltd.) was added, and the amount of luminescence was measured with a Phelios microplate luminometer (manufactured by Atto Corporation). For control, 2H4 cells untreated with a chemical substance were also examined in the same manner. The amount of luminescence of SLG luciferase activity (IL2LA), SLR luciferase activity (GAPLA), and SLO luciferase activity (IFNLA) was measured, and IL-2LA and IFNLA were each normalized by GAPLA and determined to be nIL2LA and nIFNLA, respectively. Thereafter, for the concentration of each chemical substance, the value of suppression was calculated according to formula (1) above, and the chemical substances were evaluated by using their minimum value (Min suppression).

[3] = system: 2H4 cells; assay: Evaluation of combination of IL-2 Luc LTT and IL-2 Luc assay; parameters: key: Positive (Pos): If the result is either LCT in the IL-2 Luc LTT or S in the IL-2 Luc assay, or both, the chemical substance is determined to be an immunosuppressive substance.; Negative (Neg): In the case other than the above, the chemical substance is determined to be a non-immunosuppressive substance; conditions: LCT in IL-2 Luc LTT or S in IL-2 Luc assay = Pos
Procedure: Positive (Pos): If the result is either LCT in the IL-2 Luc LTT or S in the IL-2 Luc assay, or both, the chemical substance is determined to be an immunosuppressive substance. Negative (Neg): In the case other than the above, the chemical substance is determined to be a non-immunosuppressive substance.

| Molecule | Evaluation of Combination [3] | IL-2 Luc LTT [1] | IL-2 Luc Assay [2] | determination in IL-2 Luc LTT (in words) [1] |
| --- | --- | --- | --- | --- |
| S=c1nc[nH]c2nc[nH]c12 [6-Mercaptoprine] | Neg | NLCT | N (−35<Min % suppression <35: No Effect (denoted as “N”; determined to not affect immunity)) |  |
| CS(=O)(=O)Nc1cc2occ(NC=O)c(=O)c2cc1Oc1ccccc1 [Igratimod] | Pos | NLCT | S (Min %; suppression ≥35: Suppression (denoted as “S”; determined to have immunosuppressive action)) |  |
| Cn1cnc([N+](=O)[O-])c1Sc1ncnc2nc[nH]c12 [Azathioprine (AZ), Azathioprine] | Pos | NLCT | S (Min %; suppression ≥35: Suppression (denoted as “S”; determined to have immunosuppressive action)) |  |
| COc1cc2c(c(OC)c1OC)-c1ccc(OC)c(=O)cc1[C@@H](NC(C)=O)CC2 [Colchicine] | Pos | LCT (Min % suppression ≤−35 and Min Inh-GAPLA <0.7: Leukocyte toxic (denoted as “LCT”; determined to have cell growth inhibition action and/or metabolic activity inhibition action)) | S (Min %; suppression ≥35: Suppression (denoted as “S”; determined to have immunosuppressive action)) |  |
| CC(=O)CC(c1ccccc1)c1c(O)c2ccccc2oc1=O (stereo not shown) [Warfarin] | Neg | NLCT | N (−35<Min % suppression <35: No Effect (denoted as “N”; determined to not affect immunity)) |  |
| CN(C)CCOC(c1ccccc1)c1ccccc1 [Diphenhydramine] | Pos | NLCT | S (Min %; suppression ≥35: Suppression (denoted as “S”; determined to have immunosuppressive action)) |  |
| Nc1ccn([C@@H]2O[C@H](CO)[C@@H](O)[C@@H]2O)c(=O)n1 [Cytarabine] | Pos | LCT (Min % suppression ≤−35 and Min Inh-GAPLA <0.7: Leukocyte toxic (denoted as “LCT”; determined to have cell growth inhibition action and/or metabolic activity inhibition action)) | N (−35<Min % suppression <35: No Effect (denoted as “N”; determined to not affect immunity)) |  |
| NNC(=O)c1ccncc1 [Isoniazid] | Neg | I (−35<Min % suppression <35 and 0.7≤Min Inh-GAPLA: Inconclusive (denoted as “I”; possibly not measurable due to low water solubility)) | N (−35<Min % suppression <35: No Effect (denoted as “N”; determined to not affect immunity)) |  |
| O=C([O-])[O-].[Li+].[Li+] [Lithium carbonate] | Neg | I (−35<Min % suppression <35 and 0.7≤Min Inh-GAPLA: Inconclusive (denoted as “I”; possibly not measurable due to low water solubility)) | N (−35<Min % suppression <35: No Effect (denoted as “N”; determined to not affect immunity)) |  |
| CS(=O)(=O)OCCCCOS(C)(=O)=O [Busulfan] | Neg | I (−35<Min % suppression <35 and 0.7≤Min Inh-GAPLA: Inconclusive (denoted as “I”; possibly not measurable due to low water solubility)) | N (−35<Min % suppression <35: No Effect (denoted as “N”; determined to not affect immunity)) |  |
| Bleomycin sulfate | Pos | LCT (Min % suppression ≤−35 and Min Inh-GAPLA <0.7: Leukocyte toxic (denoted as “LCT”; determined to have cell growth inhibition action and/or metabolic activity inhibition action)) | N (−35<Min % suppression <35: No Effect (denoted as “N”; determined to not affect immunity)) |  |

Now from value to molecule, other results behind:

| Evaluation of Combination [3] | Molecule | IL-2 Luc LTT [1] | IL-2 Luc Assay [2] | determination in IL-2 Luc LTT (in words) [1] |
| --- | --- | --- | --- | --- |
| Pos | NC(=O)c1cccnc1 [Nicotinamide (NA), Nicotinamide] | LCT (Min % suppression ≤−35 and Min Inh-GAPLA <0.7: Leukocyte toxic (denoted as “LCT”; determined to have cell growth inhibition action and/or metabolic activity inhibition action)) | A (Min suppression ≤−35: Augmentation (denoted as “A”; determined to have immunoaugmenting action)) |  |
| Pos | CC(=O)O[C@H]1C(=O)[C@@]2(C)[C@H]([C@H](OC(=O)c3ccccc3)[C@]3(O)C[C@H](OC(=O)[C@H](O)[C@@H](NC(=O)c4ccccc4)c4ccccc4)C(C)=C1C3(C)C)[C@]1(OC(C)=O)CO[C@@H]1C[C@@H]2O [Paclitaxel] | LCT (Min % suppression ≤−35 and Min Inh-GAPLA <0.7: Leukocyte toxic (denoted as “LCT”; determined to have cell growth inhibition action and/or metabolic activity inhibition action)) | S (Min %; suppression ≥35: Suppression (denoted as “S”; determined to have immunosuppressive action)) |  |
| Neg | CN(Cc1cnc2nc(N)nc(N)c2n1)c1ccc(C(=O)N[C@@H](CCC(=O)O)C(=O)O)cc1 [Methotrexate (MTX), Methotrexate] | NLCT | N (−35<Min % suppression <35: No Effect (denoted as “N”; determined to not affect immunity)) |  |
| Pos | Cc1ccc(=O)n(-c2ccccc2)c1 [Pirfenidone] | I (−35<Min % suppression <35 and 0.7≤Min Inh-GAPLA: Inconclusive (denoted as “I”; possibly not measurable due to low water solubility)) | S (Min %; suppression ≥35: Suppression (denoted as “S”; determined to have immunosuppressive action)) |  |
| Pos | CO[C@H]1C[C@@H]2CC[C@@H](C)[C@@](O)(O2)C(=O)C(=O)N2CCCC[C@H]2C(=O)O[C@H]([C@H](C)C[C@@H]2CC[C@@H](O)[C@H](OC)C2)CC(=O)[C@H](C)/C=C(\C)[C@@H](O)[C@@H](OC)C(=O)[C@H](C)C[C@H](C)/C=C/C=C/C=C/1C [Rapamycin (RPM), Rapamycin] | LCT (Min % suppression ≤−35 and Min Inh-GAPLA <0.7: Leukocyte toxic (denoted as “LCT”; determined to have cell growth inhibition action and/or metabolic activity inhibition action)) | N (−35<Min % suppression <35: No Effect (denoted as “N”; determined to not affect immunity)) | inhibit cell growth and/or metabolic activity |
| Pos | CN(C/C=C/C#CC(C)(C)C)Cc1cccc2ccccc12 [Terbinafine] | NLCT | N (−35<Min % suppression <35: No Effect (denoted as “N”; determined to not affect immunity)) |  |
| Pos | COc1cc([C@@H]2c3cc4c(cc3[C@@H](O[C@@H]3O[C@@H]5CO[C@@H](c6cccs6)O[C@H]5[C@H](O)[C@H]3O)[C@H]3COC(=O)[C@H]23)OCO4)cc(OC)c1O [Teniposide] | LCT (Min % suppression ≤−35 and Min Inh-GAPLA <0.7: Leukocyte toxic (denoted as “LCT”; determined to have cell growth inhibition action and/or metabolic activity inhibition action)) | N (−35<Min % suppression <35: No Effect (denoted as “N”; determined to not affect immunity)) |  |
